The numbers were not newly measured in PubChem BioAssay AID1259409 (Chemical Carcinogenesis Research Information System (CCRIS), 2018), which cites them from elsewhere.

The data set deals with rodent chemically induced tumor inhibition, incidence and multiplicity. The experiment in a line: CCRIS tumor inhibitor studies.

As to `Oc1cc(O)c2c(c1)O[C@H](c1cc(O)c(O)c(O)c1)[C@H](O)C2`, the “tumour outcome (control, treated, inhibition, significance)” value (Carcinogen: 4-METHYLNITROSAMINO-1-(3-PYRIDYL)-1-BUTANONE, 64091-91-4, Dose [Inhibitor]: 0, 560 PPM IN DRINKING WATER 2 WK PRIOR TO CARCINOGEN AND CONTINUING FOR 13 WK (STUDY DURATION: 29 WK), Route [Inhibitor]: ORAL, Species: MOUSE, Strain/Sex: A/J/FEMALE, Target Tissue: Type of Lesion: LUNG: ADENOMA, Dose [Carcinogen]: 11.65 MG/KG IN CORN OIL 3/WK FOR 10 WK, Promoter: NONE USED) is recorded as 100%, 100%, 0%, not significant; the “tumour outcome (control, treated, inhibition, significance)” value (Carcinogen: N-ETHYL-N'-NITRO-N-NITROSOGUANIDINE, 4245-77-6, Dose [Inhibitor]: 0, 0.005% IN DRINKING WATER BEGINNING POST CARCINOGEN TREATMENT AND CONTINUING FOR DURATION OF STUDY (STUDY DURATION: 16, Route [Inhibitor]: ORAL, Species: MOUSE, Strain/Sex: C57BL/MALE, Target Tissue: Type of Lesion: DUODENUM: TUMOR, Dose [Carcinogen]: 100 MG/L IN DRINKING WATER FOR 4 WK, Promoter: NONE USED) is 20/36 (63%), 6/30 (20%), 68%, p<0.001; the “tumour outcome (control, treated, inhibition, significance)” value (Carcinogen: N-METHYL-N'-NITRO-N-NITROSOGUANIDINE, 70-25-7, Dose [Inhibitor]: 0, 0.005% IN DRINKING WATER BEGINNING POST CARCINOGEN TREATMENT AND CONTINUING FOR DURATION OF STUDY (STUDY DURATION: 44, Route [Inhibitor]: ORAL, Species: RAT, Strain/Sex: WISTAR/MALE, Target Tissue: Type of Lesion: GLANDULAR STOMACH: TUMOR, Dose [Carcinogen]: 100 MG/L IN DRINKING WATER FOR 28 WK, Promoter: NONE USED) was 10/14 (71%), 6/10 (60%), 15%, not significant; the “tumour outcome (control, treated, inhibition, significance)” value (Carcinogen: N-METHYL-N'-NITRO-N-NITROSOGUANIDINE, 70-25-7, Dose [Inhibitor]: 0, 0.05% IN DRINKING WATER BEGINNING POST CARCINOGEN TREATMENT AND CONTINUING FOR DURATION OF STUDY (STUDY DURATION: 44, Route [Inhibitor]: ORAL, Species: RAT, Strain/Sex: WISTAR/MALE, Target Tissue: Type of Lesion: GLANDULAR STOMACH: TUMOR, Dose [Carcinogen]: 80 MG/L IN DRINKING WATER FOR 28 WK, Promoter: NONE USED) was 21/34 (62%), 11/35 (31%), 50%, p<0.05; the “tumour outcome (control, treated, inhibition, significance)” value (Carcinogen: PEROXYNITRITE [19059-14-4], Dose [Inhibitor]: 0.0025% IN WATER FROM 1 WK BEFORE TO 1 WK AFTER INITIATION, Route [Inhibitor]: DRINKING WATER, Species: MOUSE, Strain/Sex: SENCAR/FEMALE, Target Tissue: Type of Lesion: SKIN: PAPILLOMA, Dose [Carcinogen]: 390 UMOL ONCE (STUDY DURATION: 20 WKS), Promoter: TETRADECANOYL PHORBOL ACETATE [16561-29-8]) is recorded as 100%; 10%, 90% (at wk 11).
`C=CCc1cc(OC)c2c(c1)OCO2`: the “tumour outcome (control, treated, inhibition, significance)” value is, setting by setting: (Carcinogen: BENZO[A]PYRENE, 50-32-8, Dose [Inhibitor]: 0, 10 MG SUSPENDED IN 0.3 ML COTTONSEED OIL 3/WK FOR 4 WK ON DAYS OTHER THAN THE CARCINOGEN TREATMENT, 3 ADDITIONAL DOSE, Route [Inhibitor]: GAVAGE, Species: MOUSE, Strain/Sex: STRAIN-A/FEMALE, Target Tissue: Type of Lesion: FORESTOMACH: TUMOR, Dose [Carcinogen]: 1 MG IN 0.3 ML COTTONSEED OIL 2/WK FOR 4 WK, Promoter: NONE USED) 12/17 (71%), 13/18 (72%), -1%, not significant; (Carcinogen: BENZO[A]PYRENE, 50-32-8, Dose [Inhibitor]: 0, 10 MG SUSPENDED IN 0.3 ML COTTONSEED OIL 3/WK FOR 4 WK ON DAYS OTHER THAN THE CARCINOGEN TREATMENT, 3 ADDITIONAL DOSE, Route [Inhibitor]: GAVAGE, Species: MOUSE, Strain/Sex: STRAIN-A/FEMALE, Target Tissue: Type of Lesion: LUNG: TUMOR, Dose [Carcinogen]: 1 MG IN 0.3 ML COTTONSEED OIL 2/WK FOR 4 WK, Promoter: NONE USED) 17/17 (100%), 18/18 (100%), 0%, not significant.
In the case of `CCCCCCCCCCCCCCCCCCN`, the “tumour outcome (control, treated, inhibition, significance)” value (Carcinogen: 7,12-DIMETHYLBENZ[A]ANTHRACENE, 57-97-6, Dose [Inhibitor]: 0, 0.01% IN 20% CORN OIL DIET BEGINNING 1 WK POST CARCINOGEN DOSE (STUDY DURATION: 17 WK), Route [Inhibitor]: ORAL, Species: RAT, Strain/Sex: SPRAGUE-DAWLEY/FEMALE, Target Tissue: Type of Lesion: MAMMARY GLAND: ADENOCARCINOMA, Dose [Carcinogen]: 5 MG IN 0.5 ML OLIVE OIL ONCE, Promoter: NONE USED) was 57%, 57%, 0%, not significant and the “tumour outcome (control, treated, inhibition, significance)” value (Carcinogen: 7,12-DIMETHYLBENZ[A]ANTHRACENE, 57-97-6, Dose [Inhibitor]: 0, 0.1% IN 20% CORN OIL DIET BEGINNING 1 WK POST CARCINOGEN DOSE (STUDY DURATION: 17 WK), Route [Inhibitor]: ORAL, Species: RAT, Strain/Sex: SPRAGUE-DAWLEY/FEMALE, Target Tissue: Type of Lesion: MAMMARY GLAND: ADENOCARCINOMA, Dose [Carcinogen]: 5 MG IN 0.5 ML OLIVE OIL ONCE, Promoter: NONE USED) is recorded as 57%, 14%, 75%, p<0.001.
For `CC(Cc1ccc(O)c(O)c1)C(C)Cc1ccc(O)c(O)c1` (stereo unspecified), the “tumour outcome (control, treated, inhibition, significance)” value by setting is: (Carcinogen: 7,12-DIMETHYLBENZ[A]ANTHRACENE, 57-97-6, Dose [Inhibitor]: 0, 10 UMOL IN 0.2 ML ACETONE 1/D FOR 7 D BEGINNING 7 D PRIOR TO CARCINOGEN DOSE (STUDY DURATION: 17 WK), Route [Inhibitor]: DERMAL, Species: RAT, Strain/Sex: SENCAR/FEMALE, Target Tissue: Type of Lesion: SKIN: TUMOR, Dose [Carcinogen]: 40 NMOL IN 0.2 ML ACETONE ONCE, Promoter: 12-0-TETRADECANOYLPHORBOL-13-ACETATE, 16561-29-8) 100%, 100%, 0%, not significant; (Carcinogen: 7,12-DIMETHYLBENZ[A]ANTHRACENE, 57-97-6, Dose [Inhibitor]: 0, 10 UMOL IN 0.2 ML ACETONE 2/WK FOR 16 WK APPLIED 30 MIN PRIOR TO PROMOTER DOSES (STUDY DURATION: 17 WK), Route [Inhibitor]: DERMAL, Species: RAT, Strain/Sex: SENCAR/FEMALE, Target Tissue: Type of Lesion: SKIN: TUMOR, Dose [Carcinogen]: 40 NMOL IN 0.2 ML ACETONE ONCE, Promoter: 12-0-TETRADECANOYLPHORBOL-13-ACETATE, 16561-29-8) 100%, 85%, 15%, not calculated; (Carcinogen: 7,12-DIMETHYLBENZ[A]ANTHRACENE, 57-97-6, Dose [Inhibitor]: 30 UMOL APPLIED 30-40 MIN BEFORE EACH TPA TREATMENT AND CONCURRENTLY WITH TPA (STUDY DURATION: 18 WK), Route [Inhibitor]: DERMAL, Species: MOUSE, Strain/Sex: CD-1/FEMALE, Target Tissue: Type of Lesion: SKIN: PAPILLOMA, Dose [Carcinogen]: 200 NMOL ONCE, Promoter: 12-O-TETRADECANOYLPHORBOL-13-ACETATE, 16561-29-8) 96%, 50%, 48%, not calculated; (Carcinogen: DIETHYLNITROSAMINE, 55-18-5, Dose [Inhibitor]: 0, 1 MG/D IN 0.2 ML CORN OIL 3/WK FOR 16 WKS BEGINNING POST CARCINOGEN DOSE (STUDY DURATION: 24 WKS), Route [Inhibitor]: GAVAGE, Species: MOUSE, Strain/Sex: SWISS/MALE, Target Tissue: Type of Lesion: KIDNEY: RENAL CELL TUMOR, Dose [Carcinogen]: 100 MG/KG BW IN SALINE ONCE, Promoter: FERRIC NITRILOTRIACETATE, 16448-54-7) 68%, 20%, 71%, not calculated; (Carcinogen: DIETHYLNITROSAMINE, 55-18-5, Dose [Inhibitor]: 0, 2 MG/D IN 0.2 ML CORN OIL 3/WK FOR 16 WK BEGINNING POST CARCINOGEN DOSE (STUDY DURATION:24 WKS), Route [Inhibitor]: GAVAGE, Species: MOUSE, Strain/Sex: SWISS/MALE, Target Tissue: Type of Lesion: KIDNEY: RENAL CELL TUMOR, Dose [Carcinogen]: 100 MG/KG BW IN SALINE ONCE, Promoter: FERRIC NITRILOTRIACETATE, 16448-54-7) 68%, 16%, 76%, not calculated; (Carcinogen: N-BUTYL-N-(4-HYDROXYBUTYL)NITROSAMINE, 3817-11-6, Dose [Inhibitor]: 0, 0.1% IN DIET CONCURRENT WITH PROMOTER BEGINNING POST CARCINOGEN TREATMENT AND CONTINUING FOR 36 WK (STUDY DURATION: 4, Route [Inhibitor]: ORAL, Species: RAT, Strain/Sex: F344/MALE, Target Tissue: Type of Lesion: URINARY BLADDER: CARCINOMA, Dose [Carcinogen]: 0.05% IN DRINKING WATER FOR 4 WK, Promoter: SODIUM SACCHARIN, 128-44-9) 2/23 (9%), 1/22 (5%), 44%, not significant. In addition, the “tumour outcome (control, treated, inhibition, significance)” value (Carcinogen: N-BUTYL-N-(4-HYDROXYBUTYL)NITROSAMINE, 3817-11-6, Dose [Inhibitor]: 0, 0.1% IN DIET CONCURRENT WITH PROMOTER BEGINNING POST CARCINOGEN TREATMENT AND CONTINUING FOR 36 WK (STUDY DURATION: 4, Route [Inhibitor]: ORAL, Species: RAT, Strain/Sex: F344/MALE, Target Tissue: Type of Lesion: URINARY BLADDER: PAPILLOMA, Dose [Carcinogen]: 0.05% IN DRINKING WATER FOR 4 WK, Promoter: SODIUM SACCHARIN, 128-44-9) is on record as 5/23 (22%), 0/22 (0%), 100%, p<0.05.
